PubChem BioAssay (NCI)
Values joined by “and” are separate entries in the source; they are usually repeats but may differ in a detail not shown here. Equal values may be shown once.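 The compound was tested at five concentrations on cells cultured in 96-well plates, with a 48-hour exposure period. Definition used: TGI = concentration required for complete inhibition of growth.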

Key:
Experiment in all cases: DTP human tumour cell line panel, 48 h
M14 melanoma = system: M14 melanoma
A549 NSCLC = system: A549 NSCLC
HL-60(TB) leukemia = system: HL-60(TB) leukemia
OVCAR-4 ovarian = system: OVCAR-4 ovarian
SNB-75 CNS = system: SNB-75 CNS
SF-295 CNS = system: SF-295 CNS
CCRF-CEM leukemia = system: CCRF-CEM leukemia
T-47D breast = system: T-47D breast
SK-MEL-2 melanoma = system: SK-MEL-2 melanoma
TK-10 renal = system: TK-10 renal

SMILES	TGI (M14 melanoma)	TGI (A549 NSCLC)	TGI (HL-60(TB) leukemia)	TGI (OVCAR-4 ovarian)	TGI (SNB-75 CNS)	TGI (SF-295 CNS)	TGI (CCRF-CEM leukemia)	TGI (T-47D breast)	TGI (SK-MEL-2 melanoma)	TGI (TK-10 renal)
C/C(=N\O)c1cccc[n+]1Cc1ccccc1	> 100 µM	> 100 µM	> 100 µM	> 100 µM	> 100 µM	> 100 µM	> 100 µM	> 100 µM	> 100 µM	> 100 µM
CC(Oc1ccccc1)C(=O)NNC(=O)OC(C)(C)C (centres undefined)	> 100 µM	> 100 µM	> 100 µM	> 100 µM	> 100 µM	> 100 µM	> 100 µM	> 100 µM	> 100 µM	> 100 µM
Br[C@@H]1[C@H]2c3nc4ccccc4nc3[C@@H]1C[C@H]2Br	> 100 µM	> 100 µM	> 100 µM	> 100 µM	–	> 100 µM	> 100 µM	> 100 µM	–	> 100 µM
O=c1c(Cc2ccc(Cl)cc2)nnc2sc(-c3ccc(-c4ccc(Cl)cc4Cl)o3)nn12	> 100 µM	> 100 µM	> 100 µM	> 100 µM	–	> 100 µM	> 100 µM	> 100 µM	> 100 µM	> 100 µM
C/C(=C/CC[C@]1(CO)CC[C@]2(C)[C@H](CC[C@@H]3[C@@]4(C)CC[C@H](OC5OC(CO)C(O)C(O)C5OC5OC(CO)C(O)C(O)C5O)C(C)(C)[C@@H]4CC[C@]32C)[C@H]1O)CO (some centres undefined)	> 100 µM	> 100 µM	> 100 µM	> 100 µM	> 100 µM	> 100 µM	> 100 µM	> 100 µM	–	> 100 µM
CSc1nc(N)c2c(-c3ccccc3)c3c(nc2n1)CCCC3	> 100 µM	> 100 µM	> 100 µM	> 100 µM	> 100 µM	> 100 µM	> 100 µM	> 100 µM	–	> 100 µM
CC(C)C1=CC(=O)[C@@](C)(C2[C@H](O)C[C@@]3(C)[C@@H]4CC=C5[C@@H](CC[C@@H](OC6OCC(O)C(O)C6OC6OC(C)C(O)C(O)C6O)C5(C)C)[C@]4(C)C(=O)C[C@]23C)O1 (some centres undefined)	> 100 µM	> 100 µM	–	> 100 µM	> 100 µM	> 100 µM	> 100 µM	> 100 µM	–	–
COc1cc2c(cc1OC)C(=O)/C(=C/c1cc(C)cc(C)c1)C2	> 100 µM	18 µM	–	> 100 µM	> 100 µM	–	–	45.6 µM	44.4 µM	> 100 µM
O=c1[nH]c(=O)n(COCc2ccccc2)cc1Nc1ccc(Br)cc1	> 100 µM	> 100 µM	> 100 µM	> 100 µM	–	> 100 µM	> 100 µM	–	–	–
COc1ccc(-c2c(-c3ccccc3)c(C)nc3nc(SC)nc(SC)c23)cc1OC	> 100 µM	> 100 µM	8.49 µM	–	> 100 µM	31.5 µM	23.5 µM	> 100 µM	60.6 µM	> 100 µM
Nc1nc(Cl)c(Cl)c(NCC2(O)CCC2)n1	–	> 100 µM	> 100 µM	69 µM	> 100 µM	> 100 µM	> 100 µM	64.2 µM	> 100 µM	> 100 µM
CCC(C)C1=C(O)[N+]2([O-])Oc3ccc(-c4c(O)c(O)c(-c5ccc(OC(C)=O)cc5)c(OC(C)=O)c4OC(C)=O)cc3OC2(C(C)CC)C(=O)N1O (centres undefined)	> 50 µM	> 50 µM	> 50 µM	41.4 µM and 46.7 µM	–	> 50 µM	> 50 µM	> 50 µM	> 50 µM	> 50 µM
OC1COC2CC(Nc3ccccn3)OC12 (centres undefined)	> 100 µM	> 100 µM	–	> 100 µM	> 100 µM	> 100 µM	> 100 µM	> 100 µM	> 100 µM	> 100 µM
COc1cc(-c2c3c(cc4c2OCO4)[C@@H](Nc2ccc(-c4ccc(-c5ccc(N[C@@H]6c7cc8c(cc7C(c7cc(OC)c(O)c(OC)c7)[C@H]7C(=O)OC[C@H]67)OCO8)cc5)cc4)cc2)[C@H]2COC(=O)[C@@H]2C3)cc(OC)c1O (some centres undefined)	4.11 µM	12.6 µM	–	–	–	3.82 µM	> 100 µM	65.2 µM	–	8.59 µM
CC(C)=CC(=O)c1[nH]c2ccccc2c1CC(=O)NCCc1cncn1C	> 100 µM	> 100 µM	–	> 100 µM	> 100 µM	> 100 µM	> 100 µM	> 100 µM	> 100 µM	> 100 µM
O=C1CSC(c2cccc(Cl)c2)N1c1ccc(-c2ccc(-n3c(-c4ccccc4)nc4ccccc4c3=O)cc2)cc1 (centres undefined)	> 100 µM	> 100 µM	> 100 µM	> 100 µM	–	> 100 µM	> 100 µM	97.9 µM	> 100 µM	> 100 µM
C[C@]12CC(c3ccccc3O1)C(C(=O)Nc1nc(C34CC5CC(CC(C5)C3)C4)cs1)C(=O)N2 (some centres undefined)	> 100 µM	> 100 µM	> 100 µM	> 100 µM	> 100 µM	–	> 100 µM	> 100 µM	> 100 µM	–
Clc1ccc(C[P+](c2ccccc2)(c2ccccc2)c2ccccc2)cc1Cl	12.5 µM	19.9 µM	14.9 µM	19.5 µM	5.1 µM	22.2 µM	28.3 µM	–	6.4 µM	17.6 µM
O=C(O)c1nc2ccc(C(F)(F)F)cc2nc1Nc1ccc(F)cc1	–	–	33.3 µM	> 100 µM	60 µM	37.7 µM	–	–	34.8 µM	> 100 µM
COc1cc2c(/C=C3/C(=O)N(C)c4ccc(O)cc43)c(Cl)[nH]c2cc1C	13.1 µM	16.9 µM	3.02 µM	21.6 µM	20.8 µM	2.93 µM	–	5.93 µM	17.9 µM	20.7 µM
N/C1=C/C(=O)NC(=O)c2c(c3ccccc3oc2=O)C1	> 100 µM	> 100 µM	> 100 µM	> 100 µM	> 100 µM	–	> 100 µM	> 100 µM	> 100 µM	> 100 µM
C#CC(O)/C=C/CCCCCCC#CC/C=C\CC#CCCCCCCCCC(O)C#C (centres undefined)	–	25.8 µM	3.71 µM	15.7 µM	23.4 µM	30.3 µM	–	36.3 µM	9.44 µM	28.2 µM
